The values that follow come from ChEMBL document CHEMBL6083243, “Design, synthesis and biological evaluation of sulfonylurea derivatives as NLRP3 inflammasome inhibitors” (Bioorg Med Chem Lett, 2024).

The target of one experiment is Carbonic anhydrase 2 (Homo sapiens, UniProt P00918). Nature of the experiment: Inhibition of Carbonic anhydrase II (unknown origin).
In experiment [1] the target is NACHT, LRR and PYD domains-containing protein 3 (Mus musculus, UniProt Q8R4B8). Nature of the experiment: Inhibition of NLRP3 inflammasome activation in LPS/Nigericin stimulated mouse BMDM cells assessed as reduction in cleaved-IL-1 beta level by ELISA method. The format is cell-based. In general terms: ELISA stands for enzyme-linked immunosorbent assay.
Sequence of NACHT, LRR and PYD domains-containing protein 3 (Q8R4B8 whole entry, the tested form may be a part): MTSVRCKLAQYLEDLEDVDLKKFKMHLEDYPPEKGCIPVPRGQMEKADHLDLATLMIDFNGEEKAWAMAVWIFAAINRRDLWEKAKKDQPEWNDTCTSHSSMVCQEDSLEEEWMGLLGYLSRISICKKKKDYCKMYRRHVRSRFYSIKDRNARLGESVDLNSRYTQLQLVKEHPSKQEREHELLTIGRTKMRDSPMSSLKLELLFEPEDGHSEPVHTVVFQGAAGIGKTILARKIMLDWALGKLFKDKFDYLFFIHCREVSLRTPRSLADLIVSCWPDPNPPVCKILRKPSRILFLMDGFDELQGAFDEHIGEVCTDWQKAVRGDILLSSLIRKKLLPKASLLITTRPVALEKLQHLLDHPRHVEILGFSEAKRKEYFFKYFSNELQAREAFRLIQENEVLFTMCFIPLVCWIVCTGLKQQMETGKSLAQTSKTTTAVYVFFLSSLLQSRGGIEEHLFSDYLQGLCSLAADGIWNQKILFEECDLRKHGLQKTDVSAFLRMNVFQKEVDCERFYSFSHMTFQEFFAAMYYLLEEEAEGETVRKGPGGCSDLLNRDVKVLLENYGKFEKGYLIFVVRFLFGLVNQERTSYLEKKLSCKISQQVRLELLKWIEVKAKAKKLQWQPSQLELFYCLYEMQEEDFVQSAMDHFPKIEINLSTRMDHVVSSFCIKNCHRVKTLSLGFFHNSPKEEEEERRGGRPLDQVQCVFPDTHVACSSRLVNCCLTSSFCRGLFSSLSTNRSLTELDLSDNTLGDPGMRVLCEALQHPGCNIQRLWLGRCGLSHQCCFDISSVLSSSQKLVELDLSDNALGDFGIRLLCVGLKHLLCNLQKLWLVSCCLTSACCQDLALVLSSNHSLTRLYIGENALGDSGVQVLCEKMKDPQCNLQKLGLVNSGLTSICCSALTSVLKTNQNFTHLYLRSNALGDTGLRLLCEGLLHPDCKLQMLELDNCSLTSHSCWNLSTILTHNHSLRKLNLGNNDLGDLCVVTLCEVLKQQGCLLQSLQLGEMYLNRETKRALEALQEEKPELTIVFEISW
The target of experiment [2] is NACHT, LRR and PYD domains-containing protein 3 (Mus musculus) (UniProt Q8R4B8). The experiment in a line: Inhibition of NLRP3 inflammasome activation in LPS/Nigericin stimulated mouse BMDM cells assessed as reduction in active caspase-1 level by Western blot analysis. The class given is cell-based. Conditions: dose 0.2-2 µM. On the technique in general: In western blotting, separated proteins are transferred to a membrane and probed.
Sequence of NACHT, LRR and PYD domains-containing protein 3 (Mus musculus) (Q8R4B8 whole entry, the tested form may be a part): as above

Experiment [3] shares this target. Nature of the experiment: Inhibition of NLRP3 inflammasome activation in LPS/Nigericin stimulated mouse BMDM cells assessed as reduction in IL-1 beta level by Western blot analysis. The format is cell-based. The conditions noted are these: dose 0.2-2 µM.
The subject of a further experiment is BMDM. Nature of the experiment: Effect on NLRP3 protein expression in mouse BMDM cell lysate at 0.02 to 2 uM by Western blot analysis. The format is functional, subcellular. Conditions: dose 0.02-2 µM.

Activity calls are given as the source filed them. The rule behind the calls is not given here.

Take `CC(C)(O)c1coc(S(=O)(=O)NC(=O)Nc2c3c(cc4c2CCC4)CCC3)c1`: the values for the IC50 (at Carbonic anhydrase 2; in experiment [1]) were 11000 nM and 126 nM, respectively.

As to `CC(C)c1cc(Cl)cc(C(C)C)c1NC(=O)NS(=O)(=O)c1cc(C(C)(C)O)co1`, the IC50 (as a rule, the concentration at which inhibition is half-maximal) in experiment [1] turned out to be 171 nM.

Turning to `O=C(Nc1c(Br)cc(Cl)cc1Oc1ccccc1)NS(=O)(=O)c1cc(Br)cc2c1OCC2`, the inhibition entry in experiment [2] and in experiment [3] was “Dose-dependent-effect” throughout. Further, the IC50 in experiment [1] is 805 nM. The outcome in the experiment with BMDM was inactive.
